{
  "source": "patent US9980943B2",
  "about": "“Methods of treating muscular dystrophy” (BOARD OF REGENTS OF THE NEVADA SYSTEM OF HIGHER EDUCATION, …, priority 2013, dated 2018)",
  "format_in_all_cases": "cell-based, mouse",
  "key": {"[1]": {"test_system": "β-galactosidase in CMV-LacZ C2C12 myoblasts", "test": "CMV-LacZ secondary screen in C2C12 myoblasts (β-Gal stabilizing assay)", "conditions": "for CMV-LACZ in Myoblasts (β-galactosidase activity relative to DMSO): CMV-LacZ C2C12 myoblasts; for CMV-LACZ in Myoblasts, value relative to DMSO: SU9516 analogs, C2C12 CMV-LacZ, N=2", "procedure,_shortened": "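β-Gal level was the read-out, measured in a clonal C2C12 line expressing LacZ from a CMV promoter. Dose-response curves used six concentrations, 0.5 μM up to 40 μM, with duplicate points.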"}, "[2]": {"test_system": "β-galactosidase in CMV-LacZ C2C12 myotubes", "test": "CMV-LacZ secondary screen in C2C12 myotubes (β-Gal stabilizing assay)", "conditions": "for CMV-LACZ in Myotubes, signal relative to DMSO: C2C12 CMV-LacZ myotubes, fold relative to DMSO; for CMV-LACZ in Myotubes, value relative to DMSO: SU9516 analogs, C2C12 CMV-LacZ, N=2", "procedure,_shortened": "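Stable CMV-LacZ C2C12 clone; six-point curve 0.5–40 μM; duplicates.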"}, "[3]": {"test_system": "α7 integrin (LacZ reporter in α7+/LacZ myotubes)", "test": "Myotube α7 integrin FDG assay (Burkin assay in myotubes, 96-well)", "conditions": "for Burkin Assay in Myotubes, value relative to DMSO: SU9516 analogs, 96-well, N=3-6"}, "[4]": {"test_system": "α7 integrin (LacZ reporter in α7βgal+/− myoblasts)", "test": "Myoblast α7+/LacZ integrin FDG assay (Burkin assay in myoblasts, 96-well)", "conditions": "for Burkin Assay in Myoblasts, signal relative to DMSO: α7+/LacZ myoblasts, 96-well"}, "[5]": {"conditions": "Mus musculus, Myoblast, 48 h, read-out: Burkin Assay in Myoblasts, value relative to DMSO"}},
  "data": [
    {"smiles": "Cc1ccc(NS(=O)(=O)c2cccc(C(=O)O)c2)cc1S(=O)(=O)N1CCOCC1", "note": "[MLS000393966-01]", "values": [
      {"measurement": "CMV-LACZ in Myoblasts (β-galactosidase activity relative to DMSO)", "setting": "[1]; 0.5 uM", "result": 0.9249},
      {"measurement": "CMV-LACZ in Myoblasts (β-galactosidase activity relative to DMSO)", "setting": "[1]; 1 uM", "result": 1.0625},
      {"measurement": "CMV-LACZ in Myoblasts (β-galactosidase activity relative to DMSO)", "setting": "[1]; 5 uM", "result": 1.1744},
      {"measurement": "CMV-LACZ in Myoblasts (β-galactosidase activity relative to DMSO)", "setting": "[1]; 10 uM", "result": 0.8087},
      {"measurement": "CMV-LACZ in Myoblasts (β-galactosidase activity relative to DMSO)", "setting": "[1]; 20 uM", "result": 1.0411},
      {"measurement": "CMV-LACZ in Myoblasts (β-galactosidase activity relative to DMSO)", "setting": "[1]; 40 uM", "result": 0.9156},
      {"measurement": "CMV-LACZ in Myotubes, signal relative to DMSO", "setting": "[2]; 0.5 uM", "result": 0.9358},
      {"measurement": "CMV-LACZ in Myotubes, signal relative to DMSO", "setting": "[2]; 1 uM", "result": 1.3516},
      {"measurement": "CMV-LACZ in Myotubes, signal relative to DMSO", "setting": "[2]; 5 uM", "result": 0.8958},
      {"measurement": "CMV-LACZ in Myotubes, signal relative to DMSO", "setting": "[2]; 10 uM", "result": 1.1877},
      {"measurement": "CMV-LACZ in Myotubes, signal relative to DMSO", "setting": "[2]; 20 uM", "result": 1.0378},
      {"measurement": "CMV-LACZ in Myotubes, signal relative to DMSO", "setting": "[2]; 40 uM", "result": 1.1167},
      {"measurement": "Burkin Assay in Myotubes, α7 integrin LacZ reporter signal relative to DMSO", "setting": "[3]; 0.5 uM", "result": 0.8547},
      {"measurement": "Burkin Assay in Myotubes, α7 integrin LacZ reporter signal relative to DMSO", "setting": "[3]; 1 uM", "result": 0.8436},
      {"measurement": "Burkin Assay in Myotubes, α7 integrin LacZ reporter signal relative to DMSO", "setting": "[3]; 5 uM", "result": 1.304},
      {"measurement": "Burkin Assay in Myotubes, α7 integrin LacZ reporter signal relative to DMSO", "setting": "[3]; 10 uM", "result": 0.9546},
      {"measurement": "Burkin Assay in Myotubes, α7 integrin LacZ reporter signal relative to DMSO", "setting": "[3]; 20 uM", "result": 1.233},
      {"measurement": "Burkin Assay in Myotubes, α7 integrin LacZ reporter signal relative to DMSO", "setting": "[3]; 40 uM", "result": 1.015},
      {"measurement": "Burkin Assay in Myoblasts, signal relative to DMSO", "setting": "[4]; 0.5 uM", "result": 0.9495},
      {"measurement": "Burkin Assay in Myoblasts, signal relative to DMSO", "setting": "[4]; 1 uM", "result": 0.9626},
      {"measurement": "Burkin Assay in Myoblasts, signal relative to DMSO", "setting": "[4]; 5 uM", "result": 1.793},
      {"measurement": "Burkin Assay in Myoblasts, signal relative to DMSO", "setting": "[4]; 10 uM", "result": 1.076},
      {"measurement": "Burkin Assay in Myoblasts, signal relative to DMSO", "setting": "[4]; 20 uM", "result": 0.9904},
      {"measurement": "Burkin Assay in Myoblasts, signal relative to DMSO", "setting": "[4]; 40 uM", "result": 0.965}
    ]},
    {"smiles": "Cc1ccc(N2C(=O)C3NN=C(C(=O)OCc4ccccc4)C3C2=O)cc1", "note": "(stereo not drawn) [MLS000588210-01]", "values": [
      {"measurement": "CMV-LACZ in Myoblasts (β-galactosidase activity relative to DMSO)", "setting": "[1]; 0.5 uM", "result": 1.2908},
      {"measurement": "CMV-LACZ in Myoblasts (β-galactosidase activity relative to DMSO)", "setting": "[1]; 1 uM", "result": 0.9782},
      {"measurement": "CMV-LACZ in Myoblasts (β-galactosidase activity relative to DMSO)", "setting": "[1]; 5 uM", "result": 0.7808},
      {"measurement": "CMV-LACZ in Myoblasts (β-galactosidase activity relative to DMSO)", "setting": "[1]; 10 uM", "result": 0.9316},
      {"measurement": "CMV-LACZ in Myoblasts (β-galactosidase activity relative to DMSO)", "setting": "[1]; 20 uM", "result": 1.0307},
      {"measurement": "CMV-LACZ in Myoblasts (β-galactosidase activity relative to DMSO)", "setting": "[1]; 40 uM", "result": 0.9000},
      {"measurement": "CMV-LACZ in Myotubes, signal relative to DMSO", "setting": "[2]; 0.5 uM", "result": 1.1263},
      {"measurement": "CMV-LACZ in Myotubes, signal relative to DMSO", "setting": "[2]; 1 uM", "result": 1.0853},
      {"measurement": "CMV-LACZ in Myotubes, signal relative to DMSO", "setting": "[2]; 5 uM", "result": 0.9182},
      {"measurement": "CMV-LACZ in Myotubes, signal relative to DMSO", "setting": "[2]; 10 uM", "result": 1.0815},
      {"measurement": "CMV-LACZ in Myotubes, signal relative to DMSO", "setting": "[2]; 20 uM", "result": 1.1322},
      {"measurement": "CMV-LACZ in Myotubes, signal relative to DMSO", "setting": "[2]; 40 uM", "result": 1.1656},
      {"measurement": "Burkin Assay in Myotubes, α7 integrin LacZ reporter signal relative to DMSO", "setting": "[3]; 0.5 uM", "result": 0.9425},
      {"measurement": "Burkin Assay in Myotubes, α7 integrin LacZ reporter signal relative to DMSO", "setting": "[3]; 1 uM", "result": 0.9559},
      {"measurement": "Burkin Assay in Myotubes, α7 integrin LacZ reporter signal relative to DMSO", "setting": "[3]; 5 uM", "result": 0.9466},
      {"measurement": "Burkin Assay in Myotubes, α7 integrin LacZ reporter signal relative to DMSO", "setting": "[3]; 10 uM", "result": 0.9155},
      {"measurement": "Burkin Assay in Myotubes, α7 integrin LacZ reporter signal relative to DMSO", "setting": "[3]; 20 uM", "result": 0.9763},
      {"measurement": "Burkin Assay in Myotubes, α7 integrin LacZ reporter signal relative to DMSO", "setting": "[3]; 40 uM", "result": 0.9565},
      {"measurement": "Burkin Assay in Myoblasts, signal relative to DMSO", "setting": "[4]; 0.5 uM", "result": 1.055},
      {"measurement": "Burkin Assay in Myoblasts, signal relative to DMSO", "setting": "[4]; 1 uM", "result": 0.9707},
      {"measurement": "Burkin Assay in Myoblasts, signal relative to DMSO", "setting": "[4]; 5 uM", "result": 0.9002},
      {"measurement": "Burkin Assay in Myoblasts, signal relative to DMSO", "setting": "[4]; 10 uM", "result": 0.9816},
      {"measurement": "Burkin Assay in Myoblasts, signal relative to DMSO", "setting": "[4]; 20 uM", "result": 1.136},
      {"measurement": "Burkin Assay in Myoblasts, signal relative to DMSO", "setting": "[4]; 40 uM", "result": 0.9611}
    ]},
    {"smiles": "CCc1nc(/C=C2\\C(=O)Nc3ccccc32)c[nH]1", "note": "[MLS000834755-01]", "values": [
      {"measurement": "CMV-LACZ in Myoblasts, value relative to DMSO", "setting": "[1]; 0.5 uM", "result": 1.0317},
      {"measurement": "CMV-LACZ in Myoblasts, value relative to DMSO", "setting": "[1]; 1 uM", "result": 1.0400},
      {"measurement": "CMV-LACZ in Myoblasts, value relative to DMSO", "setting": "[1]; 5 uM", "result": 0.9591},
      {"measurement": "CMV-LACZ in Myoblasts, value relative to DMSO", "setting": "[1]; 10 uM", "result": 0.9834},
      {"measurement": "CMV-LACZ in Myoblasts, value relative to DMSO", "setting": "[1]; 20 uM", "result": 0.9007},
      {"measurement": "CMV-LACZ in Myoblasts, value relative to DMSO", "setting": "[1]; 40 uM", "result": 0.9133},
      {"measurement": "CMV-LACZ in Myotubes, value relative to DMSO", "setting": "[2]; 0.5 uM", "result": 0.5547},
      {"measurement": "CMV-LACZ in Myotubes, value relative to DMSO", "setting": "[2]; 1 uM", "result": 1.2863},
      {"measurement": "CMV-LACZ in Myotubes, value relative to DMSO", "setting": "[2]; 5 uM", "result": 1.0514},
      {"measurement": "CMV-LACZ in Myotubes, value relative to DMSO", "setting": "[2]; 10 uM", "result": 1.1048},
      {"measurement": "CMV-LACZ in Myotubes, value relative to DMSO", "setting": "[2]; 20 uM", "result": 1.2989},
      {"measurement": "CMV-LACZ in Myotubes, value relative to DMSO", "setting": "[2]; 40 uM", "result": 0.8789},
      {"measurement": "Burkin Assay in Myotubes, value relative to DMSO", "setting": "[3]; 0.5 uM", "result": 1.263},
      {"measurement": "Burkin Assay in Myotubes, value relative to DMSO", "setting": "[3]; 1 uM", "result": 1.232},
      {"measurement": "Burkin Assay in Myotubes, value relative to DMSO", "setting": "[3]; 5 uM", "result": 1.003},
      {"measurement": "Burkin Assay in Myotubes, value relative to DMSO", "setting": "[3]; 10 uM", "result": 0.9868},
      {"measurement": "Burkin Assay in Myotubes, value relative to DMSO", "setting": "[3]; 20 uM", "result": 0.9687},
      {"measurement": "Burkin Assay in Myotubes, value relative to DMSO", "setting": "[3]; 40 uM", "result": 0.816},
      {"measurement": "fold induction at 0.5 µM", "setting": "[4]; [5]", "result": 1.27},
      {"measurement": "fold induction at 1 µM", "setting": "[4]; [5]", "result": 1.08},
      {"measurement": "fold induction at 5 µM", "setting": "[4]; [5]", "result": 1.08},
      {"measurement": "fold induction at 10 µM", "setting": "[4]; [5]", "result": 1.16},
      {"measurement": "fold induction at 20 µM", "setting": "[4]; [5]", "result": 1.19},
      {"measurement": "fold induction at 40 µM", "setting": "[4]; [5]", "result": 0.796}
    ]}
  ]
}
